Results reported in PubChem BioAssay (NCI).
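Step 1: Grow cells in 96-well plates. Step 2: Expose to compound for 48 hours at 5 concentrations. Step 3: Interpolate endpoints linearly; if unreached, use highest concentration. Here, GI50 denotes the concentration required for 50% inhibition of growth. At the TGI there is no net growth.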

Legend:
Assay in all cases: NCI-60 cell line screen, 48 h
[1] = system: M14 melanoma
[2] = system: SW-620 colon
[3] = system: BT-549 breast
[4] = system: 786-0 renal
[5] = system: UO-31 renal
[6] = system: MOLT-4 leukemia
[7] = system: EKVX NSCLC
[8] = system: HOP-62 NSCLC
[9] = system: NCI/ADR-RES ovarian
[10] = system: HCC-2998 colon
[11] = system: OVCAR-4 ovarian
[12] = system: SF-539 CNS
[13] = system: COLO 205 colon
[14] = system: SK-MEL-2 melanoma
[15] = system: NCI-H460 lung
[16] = system: RXF 393 renal
[17] = system: MCF7 breast
[18] = system: HT29 colon
[19] = system: DU-145 prostate
[20] = system: SR leukemia
[21] = system: A498 renal
[22] = system: SNB-75 CNS
[23] = system: OVCAR-8 ovarian
[24] = system: SNB-19 CNS
[25] = system: K-562 leukemia
[26] = system: MDA-MB-231 breast
[27] = system: SF-295 CNS
[28] = system: MDA-MB-435

`Nc1cc2c([nH]c[n+]2CC#CCCl)c(SCC#CCCl)n1` showed a TGI [1] of 2.49 µM, a GI50 [2] of 1.17 µM and a TGI [2] of 2.7 µM. It also gave a GI50 [3] of 1.15 µM, a TGI [3] of 2.42 µM and a GI50 [4] of 1.27 µM. For the same compound, the TGI [4] was 3.05 µM, the GI50 [5] was 0.763 µM and the TGI [5] was 2.33 µM. For the same compound, the GI50 [6] was 1.32 µM, the TGI [6] was greater than 100 µM and the GI50 [7] was 1.25 µM. For the same compound, the TGI [7] was 2.76 µM, the GI50 [8] was 1.4 µM and the TGI [8] was 2.99 µM. The GI50 [9] was 1.71 µM, the TGI [9] was 4.24 µM and the GI50 [10] was 1.77 µM. It also gave a TGI [10] of 3.17 µM, a GI50 [11] of 1.57 µM and a TGI [11] of 7.17 µM. The GI50 [12] was 1.62 µM, the TGI [12] was 3.24 µM and the GI50 [13] was 1.46 µM. It also gave a TGI [13] of 2.9 µM, a GI50 [14] of 1.65 µM and a TGI [14] of 4.47 µM. For the same compound, the GI50 [15] was 0.374 µM, the TGI [15] was 1.5 µM and the GI50 [16] was 1.2 µM. It also gave a TGI [16] of 2.56 µM, a GI50 [17] of 0.442 µM and a TGI [17] of 2.18 µM. It also gave a GI50 [18] of 0.883 µM, a TGI [18] of 2.52 µM and a GI50 [19] of 1.05 µM. It also gave a TGI [19] of 2.34 µM, a GI50 [20] of 0.336 µM and a TGI [20] of 16.4 µM. For the same compound, the GI50 [21] was 1.1 µM, the TGI [21] was 2.44 µM and the GI50 [22] was 1.14 µM. The TGI [22] was 2.4 µM, the GI50 [23] was 1.62 µM and the TGI [23] was 6.02 µM. It also gave a GI50 [24] of 1.4 µM, a TGI [24] of 2.84 µM and a GI50 [25] of 1.97 µM. For the same compound, the TGI [25] was greater than 100 µM, the GI50 [26] was 1.39 µM and the TGI [26] was 3.2 µM. For the same compound, the GI50 [27] was 1.54 µM, the TGI [27] was 3.08 µM and the GI50 [28] was 1.09 µM. The TGI [28] was 2.63 µM.
